The record followed here is article doi:10.1101/761585v1, “A simple method to determine the elimination half-life of drugs displaying noncumulative toxicity” (bioRxiv, 2019).

Data set [1] deals with BALB/c mice. The data set is described as follows: Acute toxicity, single intraperitoneal dose, 5-day survival. In kind it is in vivo, mouse. Particulars: highest single intraperitoneal dose causing no mortality in BALB/c mice observed for 5 days. As for the experimental part: Acute toxicity comprises the lethal effects of a single dose of a drug, rather than the combined lethal effects of multiple doses of a drug. BALB/c mice (6-8 weeks, 20 g) were injected intraperitoneally with varying doses of Ω76 and Pexiganan, at 2-fold concentration increments. 5 mice per concentration cohort were used. […] Mice treated with both Ω76 and Pexiganan display mortality that increases in a dose-dependent manner. […] However, for TOXHL, determining the maximum nonlethal dose (MND) rather than the LD50 is more important. […] Here, the MND values for Ω76 and Pexiganan are […] (Figure 1A, shown in arrows).
Figure 1. All experiments required to determine the elimination half-life using TOXHL. BALB/c mice (6-8 weeks, 20 g) were used for all experiments. (A) Acute toxicity experiments to determine survival vs. concentration of drug injected intraperitoneally. Determining the maximum nonlethal dose (MND), which is the highest concentration of a drug that causes no mortality, is essential for later noncumulative toxicity experiments. Here, the MND for Pexiganan is 32 mg/kg (blue arrow), and the MND for Ω76 is 64 mg/kg (red arrow). (B) Multi-dose (non)cumulative toxicity determination experiments. Here, mice were intraperitoneally injected with 11 doses of drug (at the MND concentration), at 12 hour intervals over the course of 5 days. […]

Data set [2] has as its system BALB/c mice. Nature of the data set: Multi-dose (non)cumulative toxicity, 11 doses at the MND at 12 hour intervals. The data set is classed as in vivo, mouse. As for the experimental part:
Figure 1. All experiments required to determine the elimination half-life using TOXHL. BALB/c mice (6-8 weeks, 20 g) were used for all experiments. (A) Acute toxicity experiments to determine survival vs. concentration of drug injected intraperitoneally. Determining the maximum nonlethal dose (MND), which is the highest concentration of a drug that causes no mortality, is essential for later noncumulative toxicity experiments. Here, the MND for Pexiganan is 32 mg/kg (blue arrow), and the MND for Ω76 is 64 mg/kg (red arrow). (B) Multi-dose (non)cumulative toxicity determination experiments. Here, mice were intraperitoneally injected with 11 doses of drug (at the MND concentration), at 12 hour intervals over the course of 5 days. All mice treated with Pexiganan died, indicating cumulative toxicity. All mice treated with Ω76 survived, indicating noncumulative toxicity. The difference between the survival outcomes of the Ω76 and Pexiganan cohorts are statistically significant (p=7e-3, Fisher’s test). […] 5 doses at the MND were injected intraperitoneally at Δt of 15, 7.5 and 3 minutes. 67% survival (33% mortality) was observed a Δt = 3 minutes (ΔtM, highlighted in yellow). […] Note that a separate set of similar experiments was described in our previous work[19], but these experiments were only used to assess the toxicity of Ω76.
Cumulative toxicity comprises the lethal effects of multiple doses of drug when injected intraperitoneally at MND concentrations. 10 BALB/c mice (6-8 weeks, 20 g) were treated with 11 doses of Pexiganan, administered at the MND (32 mg/kg) at 12 hour intervals, over the course of 5 days. Despite Pexiganan never exceeding the MND concentration, 100% mortality was observed. […] However, this damage is not reversed within the dosing interval timespan (12 hours), and additional doses only serve to incrementally increase the total damage caused to mice, until a threshold is reached and death occurs.
Figure 2. Peritonea of BALB/c mice (6-8 weeks, 20 g) treated with Ω76 and Pexiganan for (non)cumulative toxicity experiments. […]

Data set [3] in a line: Solubility of peptide stocks in saline vs PBS. The data set is classed as physicochemical. Particulars: 20 mg/mL stocks prepared in physiological saline (0.8% NaCl). On the procedure:
For all experiments described in this work, BALB/c mice (6-8 weeks, 20 g) were housed at the Central Animal Facility (CAF, IISc) and fed ad libitum with pellet feed and water. All animal experiments were approved by the Institutional Animal Ethics Committee, IISc (Project No. CAF/Ethics/550/2017). A detailed description of all methods used is provided in the results section. However, it should be noted that 20 mg/mL stocks for both Ω76 and Pexiganan were prepared in physiological saline (0.8% NaCl) and stored at −80 °C. […] These stocks were diluted in saline to obtain the concentration needed for the specific experiment. All intraperitoneal injections were 200 μL in volume, as larger volumes could alter peritoneal elimination kinetics.

Several values for one entry are separate records, joined by “and”; a condition that tells them apart may be missing. Equal values may be shown once.

On to Pexiganan, for which the “maximum nonlethal dose (MND)” value in data set [1] was 64 mg/kg and 32 mg/kg. Besides, the “survival outcome after 11 doses at the MND” value in data set [2] (10 BALB/c mice, 11 intraperitoneal doses at the MND (Pexiganan 32 mg/kg, Ω76 64 mg/kg), 12 hour intervals over 5 days) was “died”. For the same substance, the “mortality after 11 doses at the MND” value in data set [2] (10 BALB/c mice, 11 intraperitoneal doses of Pexiganan at the MND (32 mg/kg), 12 hour intervals over 5 days) stood at 100%. In addition, the “autopsy finding, peritoneal organs” value in data set [2] (BALB/c mice, intraperitoneal doses at the MND at 12 hour intervals (Ω76 11 doses of 64 mg/kg over 5 days; Pexiganan 32 mg/kg until mortality)) was “intestinal inflammation is clearly visible”. Besides, in data set [3], the “solubility in phosphate buffered saline (PBS) compared with physiological saline” value is “poorer solubility”.
